What all share (type): cell-based
One test concerns the target T1, STAT3 (Homo sapiens, UniProt P40763).
T1 construct: plasmid pSTAT3-TA-luc), which contains a stably operating STAT3 promoter; endogenous in cells
Briefly: STAT3 reporter gene assay (luciferase), LNCaP stable cell line (pSTAT3-TA-luc), IL-6 stimulation. The gist of the method: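 Cytotoxicity was run on a duplicate plate with CellTiter-Glo, while the other plate gave luciferase read-outs from lysed LNCaP pSTAT3-TA-luc reporter cells. Cells were treated with graded compound concentrations plus IL-6 (10 ng/mL final) for 24–48 h in 3% DCC-FBS medium. Unstimulated and stimulated wells served as negative and positive controls.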
(Reporter assays use an easily measured gene product as a stand-in for the process of interest.)

Another test concerns LNCaP. Briefly: Cell growth inhibition assay, prostate cancer cell line LNCaP (medium with 10 ng/mL IL-6). The conditions noted are these: Homo sapiens, medium supplemented with 10 ng/mL of IL-6, 10,000 cells/well.
Another test relates to DU-145. Briefly: Cell growth inhibition assay, prostate cancer cell line DU-145. The following applies: Homo sapiens, DU-145 prostate cancer cell line. The gist of the method:
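DU-145 and HCT116 cells were plated at 3,000 cells/well and SW626 at 5,000 cells/well, then treated with serially diluted compounds. After 72 to 96 hours at 37° C. under 5% CO2, viability was read by CellTiter-Glo luminescence against cell-free medium wells and 0.1% DMSO wells.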

Another test concerns HEL92.1.7. Briefly: Cell growth inhibition assay, blood cancer cell line HEL92.1.7. The conditions noted are these: Homo sapiens, HEL 92.1.7, HEL92.1.7 blood cancer cell line. The procedure: The inhibitory effects of the compounds of the present invention against the growth of cancer cells were evaluated as shown below. The cancer cell lines including stomach cancer cell line (AGS), breast cancer cell lines (MDA-MB-231, MDA-MB-468, and BT-549), prostate cancer cell lines (LNCaP and DU-145), colon cancer cell line (HCT116), ovarian cancer cell line (SW626), liver cancer cell line (Hep3B), kidney cancer cell line (ACHN), lung cancer cell line (NCI-H23) and blood cancer cell lines (HEL92.1.7 and U266) were cultured under the protocol provided by each supplier. A medium supplemented with 10 ng/mL of IL-6 was used for LNCaP, a prostate cancer cell line, when treated with a drug. Each type of cells to be used in experiments were sub-cultured in a 96-well plate by counting the exact number of cells using Tali™ Image-based Cytometer (Life Technologies). In a 96-well plate, AGS, HCT116, and DU-145 were employed with 3,000 cells/well; NCI-H23, SW626, Hep3B, ACHN, BT-549, MDA-MB-231, HEL92.1.7, and U266 were employed with 5,000 cells/well; and LNCaP and MDA-MB-468 were employed with 10,000 cells/well. The cells were treated with the compounds listed in Examples which were diluted in various concentrations. Upon completion of the compounds treatment, AGS, HCT116, SW626, DU145, NCI-H23, Hep3B, ACHN, BT-549, LNCaP, HEL92.1.7, and U266 cells were cultured at 37° C. under 5% CO2 for from 72 to 96 hours, and MDA-MB-231 and MDA-MB-468 cells were cultured at 37° C. in air for from 72 to 96 hours. Subsequently, the cells were observed under microscope and drug precipitation and particular findings were investigated and recorded. And then, the 96-well plate was placed at room temperature for 30 minutes, added with 20 μL/well of CellTiter-Glo solution (Cat No. G7573, Promega) and shaken for 10 minutes, followed by being subjected to the measurement using PHERAstar™ microplate reader (BMG LABTECH) according to the supplier's general luminometer protocol. Wells where only culture liquid added without cell plating were used as a negative control, whereas wells where culture liquid containing 0.1% DMSO instead of the compounds listed in Examples were used as a positive control.

T1 sequence (P40763 whole entry): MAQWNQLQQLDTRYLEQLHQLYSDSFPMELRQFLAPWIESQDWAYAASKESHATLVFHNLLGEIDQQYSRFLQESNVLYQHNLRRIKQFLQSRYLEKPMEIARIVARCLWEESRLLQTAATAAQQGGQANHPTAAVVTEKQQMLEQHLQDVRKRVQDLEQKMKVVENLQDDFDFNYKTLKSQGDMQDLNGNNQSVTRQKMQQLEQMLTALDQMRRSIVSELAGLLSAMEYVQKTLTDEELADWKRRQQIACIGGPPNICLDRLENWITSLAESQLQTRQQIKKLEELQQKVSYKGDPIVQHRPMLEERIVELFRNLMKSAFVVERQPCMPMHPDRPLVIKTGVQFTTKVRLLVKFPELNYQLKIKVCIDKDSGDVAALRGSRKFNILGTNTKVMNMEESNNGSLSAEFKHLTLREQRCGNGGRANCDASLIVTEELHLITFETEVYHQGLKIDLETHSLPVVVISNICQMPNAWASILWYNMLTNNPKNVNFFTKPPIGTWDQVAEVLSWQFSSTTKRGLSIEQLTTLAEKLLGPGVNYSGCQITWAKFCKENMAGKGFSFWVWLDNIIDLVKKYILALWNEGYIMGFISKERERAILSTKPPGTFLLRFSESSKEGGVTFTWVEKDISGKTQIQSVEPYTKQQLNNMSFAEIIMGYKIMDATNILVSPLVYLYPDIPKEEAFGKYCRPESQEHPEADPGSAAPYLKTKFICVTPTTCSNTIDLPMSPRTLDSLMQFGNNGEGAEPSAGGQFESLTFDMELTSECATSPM

Turning to `COc1cc(OC(F)(F)F)cc(C(C)(C)c2cc(Cl)nc(NC(=O)c3cc4cc(NS(C)(=O)=O)ccc4s3)c2)c1` [Example 148, N-(6-chloro-4-(2-(3-methoxy-5-(trifluoromethoxy)phenyl)propan-2-yl)pyridin-2-yl)-5-(methylsulfonamido)benzo[b]thiophene-2-carboxamide], the half-inhibitory concentration (IC50) (as a rule, the concentration that inhibits the measured activity by half) against STAT3 is more than 10 µM; in the test with LNCaP, 0.58 µM; in the test with DU-145, 0.38 µM; with HEL92.1.7, 1 µM.
Regarding `COc1cc(OC(F)(F)F)cc(C(C)(C)c2cc(NC(=O)c3cc4cc(NS(C)(=O)=O)ccc4s3)cc(Cl)n2)c1` [Example 149, N-(2-chloro-6-(2-(3-methoxy-5-(trifluoromethoxy)phenyl)propan-2-yl)pyridin-4-yl)-5-(methylsulfonamido)benzo[b]thiophene-2-carboxamide], the IC50 against STAT3 is 0.07 µM; in the test on LNCaP, 0.05 µM; with DU-145, 0.03 µM; with HEL92.1.7, 0.14 µM.
On the same counts, the results for `COc1cc(OC(F)(F)F)cc(C(C)(C)c2cc(Cl)cc(NC(=O)c3cc4cc(NS(C)(=O)=O)ccc4s3)n2)c1` [Example 150, N-(4-chloro-6-(2-(3-methoxy-5-(trifluoromethoxy)phenyl)propan-2-yl)pyridin-2-yl)-5-(methylsulfonamido)benzo[b]thiophene-2-carboxamide] are 0.014 µM, 0.016 µM, 0.008 µM and 0.031 µM.
As to `CC(C)Oc1cc(OC(F)(F)F)cc(C(C)(C)c2cc(Cl)cc(NC(=O)c3cc4nc(NS(C)(=O)=O)cnc4s3)c2)c1` [Example 151, N-(3-chloro-5-(2-(3-isopropoxy-5-(trifluoromethoxy)phenyl)propan-2-yl)phenyl)-2-(methylsulfonamido)thieno[2,3-b]pyrazine-6-carboxamide], the half-maximal inhibitory concentration (IC50) at STAT3 was 2.2 µM; with LNCaP, 0.36 µM; in the test with DU-145, more than 1.1 µM; in the test on HEL92.1.7, 4.7 µM.
The matching figures for `CC(C)(c1ccc(Br)cc1)c1cc(Cl)cc(NC(=O)c2cc3cc(NS(C)(=O)=O)ccc3s2)c1` [Example 152, N-(3-(2-(4-bromophenyl)propan-2-yl)-5-chlorophenyl)-5-(methylsulfonamido)benzo[b]thiophene-2-carboxamide]: 0.12 µM, 0.059 µM, 0.047 µM and 0.21 µM.
The matching figures for `COc1ccc(C(C)(C)c2cc(Cl)cc(NC(=O)c3cc4cc(NS(C)(=O)=O)ccc4s3)c2)cc1OC` [Example 153, N-(3-chloro-5-(2-(3,4-dimethoxyphenyl)propan-2-yl)phenyl)-5-(methylsulfonamido)benzo[b]thiophene-2-carboxamide]: 0.15 µM, 0.1 µM, 0.15 µM and 0.39 µM.
The matching figures for `COc1ccc(C(C)(C)c2cc(Cl)cc(NC(=O)c3cc4cc(NS(C)(=O)=O)ccc4s3)c2)c(OC)c1` [Example 154, N-(3-chloro-5-(2-(2,4-dimethoxyphenyl)propan-2-yl)phenyl)-5-(methylsulfonamido)benzo[b]thiophene-2-carboxamide]: 0.14 µM, 0.11 µM, 0.17 µM and 0.34 µM.
For the compound `COc1ccc(C(C)(C)c2cc(Cl)cc(NC(=O)c3cc4cc(NS(C)(=O)=O)ccc4s3)c2)cc1` [Example 155, N-(3-chloro-5-(2-(4-methoxyphenyl)propan-2-yl)phenyl)-5-(methylsulfonamido)benzo[b]thiophene-2-carboxamide], the 50% inhibitory concentration (IC50) against STAT3 amounted to 0.078 µM; with LNCaP it was 0.034 µM; in the test with DU-145 it was 0.061 µM; in the test with HEL92.1.7, 0.13 µM.
Consider `COc1ccc(OC)c(C(C)(C)c2cc(Cl)cc(NC(=O)c3cc4cc(NS(C)(=O)=O)ccc4s3)c2)c1` [Example 156, N-(3-chloro-5-(2-(2,5-dimethoxyphenyl)propan-2-yl)phenyl)-5-(methylsulfonamido)benzo[b]thiophene-2-carboxamide], for which the concentration for half-maximal inhibition (IC50) on STAT3 was 0.23 µM; in the test with LNCaP, 0.14 µM; in the test with DU-145, 0.25 µM; in the test on HEL92.1.7 it was 0.74 µM.
On the same counts, the results for `CSc1ccc(C(C)(C)c2cc(Cl)cc(NC(=O)c3cc4cc(NS(C)(=O)=O)ccc4s3)c2)cc1` [Example 157, N-(3-chloro-5-(2-(4-(methylthio)phenyl)propan-2-yl)phenyl)-5-(methylsulfonamido)benzo[b]thiophene-2-carboxamide] are 0.063 µM, 0.079 µM, 0.06 µM and 0.23 µM.
The matching figures for `CC(C)(c1ccc(Cl)cc1)c1cc(Cl)cc(NC(=O)c2cc3cc(NS(C)(=O)=O)ccc3s2)c1` [Example 158, N-(3-chloro-5-(2-(4-chlorophenyl)propan-2-yl)phenyl)-5-(methylsulfonamido)benzo[b]thiophene-2-carboxamide]: 0.12 µM, 0.056 µM, 0.048 µM and 0.22 µM.
On the same counts, the results for `CC(C)(c1cc(Cl)cc(NC(=O)c2cc3cc(NS(C)(=O)=O)ccc3s2)c1)c1ccc(F)c(F)c1` [Example 162, N-(3-chloro-5-(2-(3,4-difluorophenyl)propan-2-yl)phenyl)-5-(methylsulfonamido)benzo[b]thiophene-2-carboxamide] are 0.069 µM, 0.064 µM, 0.052 µM and 0.2 µM.
With `CN(c1cc2cc(C(=O)Nc3cc(Cl)cc(C(C)(C)c4ccc(Cl)cc4)c3)sc2cc1F)S(C)(=O)=O` [Example 163, N-(3-chloro-5-(2-(4-chlorophenyl)propan-2-yl)phenyl)-6-fluoro-5-(N-methylmethylsulfonamido)benzo[b]thiophene-2-carboxamide], the concentration for half-maximal inhibition (IC50) against STAT3 came to 0.011 µM; with LNCaP, 0.013 µM; with DU-145, 0.016 µM; in the test with HEL92.1.7, 0.019 µM.
On the same counts, the results for `CC(C)(c1cc(Cl)cc(NC(=O)c2cc3cc(NS(C)(=O)=O)ccc3s2)c1)N1CCCCC1` [Example 164, N-(3-chloro-5-(2-(piperidin-1-yl)propan-2-yl)phenyl)-5-(methylsulfonamido)benzo[b]thiophene-2-carboxamide] are 0.72 µM, 0.9 µM, more than 1.1 µM and more than 1.1 µM.
The matching figures for `CC(C)(c1cc(Cl)cc(NC(=O)c2cc3cc(NS(C)(=O)=O)ccc3s2)c1)c1ccc[nH]1` [Example 166, N-(3-(2-(1H-pyrrol-2-yl)propan-2-yl)-5-chlorophenyl)-5-(methylsulfonamido)benzo[b]thiophene-2-carboxamide]: 0.31 µM, 1 µM, 0.41 µM and more than 1.1 µM.
On the same counts, the results for `CC(C)(c1cc[nH]c1)c1cc(Cl)cc(NC(=O)c2cc3cc(NS(C)(=O)=O)ccc3s2)c1` [Example 167, N-(3-(2-(1H-pyrrol-3-yl)propan-2-yl)-5-chlorophenyl)-5-(methylsulfonamido)benzo[b]thiophene-2-carboxamide] are 2.6 µM, 2.3 µM, more than 1.1 µM and more than 1.1 µM.
On to `Cn1ccc(C(C)(C)c2cc(Cl)cc(NC(=O)c3cc4cc(NS(C)(=O)=O)ccc4s3)c2)c1` [Example 168, N-(3-chloro-5-(2-(1-methyl-1H-pyrrol-3-yl)propan-2-yl)phenyl)-5-(methylsulfonamido)benzo[b]thiophene-2-carboxamide], for which the IC50 at STAT3 stood at 0.13 µM; in the test on LNCaP, 0.096 µM; with DU-145 it was 0.13 µM; in the test on HEL92.1.7, 0.39 µM.

Source of the values: patent US10562912B2 (C&C Research Laboratories, priority 2013, dated 2020).
